# Measured values as given in US8173788B2, “Peptide having ability to activate cancer-related gene” (priority 2005, dated 2012).
# System: human normal peripheral blood monocyte
# Assay: Influence of the artificially synthesized peptide on normal cell genes: coculture 7 hr, DNA chip system (Clontech), about 55000 human genes (Table 4)
# Type: cell-based
# Experimental: (a) The peptide obtained in Example 3 was added to a human normal peripheral blood monocyte culture system (10 to 100 μg peptide/1×10^6 to 1×10^7 monocytes), and they were cocultured for 7 hr. Then, mRNA was extracted from the monocytes and was applied to analysis for up-regulation and down-regulation in respect to about 55000 human genes by using DNA chip system (Clontech).
# [1] = Enhanced Gene, Immune System Gene, Gene No. 21607, colony stimulating factor 1 (macrophage) (CSF1), transcript variant 1
# [2] = Enhanced Gene, Immune System Gene, Gene No. 22100, IL5-CI0001-181000-178-f03 CI0001 Homo sapiens cDNA
# [3] = Enhanced Gene, Immune System Gene, Gene No. 22254, interleukin 4 (IL4), transcript variant 1
# [4] = Enhanced Gene, Immune System Gene, Gene No. 25767, tumor necrosis factor (TNF superfamily, member 2) (TNF)
# [5] = Enhanced Gene, Immune System Gene, Gene No. 28615, IL3-UT0117-080301-496-D07 UT0117 Homo sapiens cDNA
# [6] = Enhanced Gene, Immune System Gene, Gene No. 29703, chemokine (C—X—C motif) ligand 9 (CXCL9)
# [7] = Enhanced Gene, Immune System Gene, Gene No. 45170, transforming growth factor beta 1 induced transcript 1 (TGFB1I1)
# [8] = Enhanced Gene, Immune System Gene, Gene No. 51904, interleukin 1 family, member 8 (eta) (IL1F8), transcript variant 1
# [9] = Enhanced Gene, Oncogene, Gene No. 2183, neuro-oncological ventral antigen 1 (NOVA1), transcript variant 1
# [10] = Enhanced Gene, Oncogene, Gene No. 3642, RAB2, member RAS oncogene family (RAB2)
# [11] = Enhanced Gene, Oncogene, Gene No. 3858, preferentially expressed antigen in melanoma (PRAME), transcript variant 3
# [12] = Enhanced Gene, Oncogene, Gene No. 4210, RAS-like, family 11, member A (RASL11A)
# [13] = Enhanced Gene, Oncogene, Gene No. 6231, breast carcinoma amplified sequence 1 (BCAS1)
# [14] = Enhanced Gene, Oncogene, Gene No. 6329, mutated in colorectal cancers (MCC)
# [15] = Enhanced Gene, Oncogene, Gene No. 7394, HELA CELLS COT 25-NORMALIZED cDNA clone CS0DK007YM05 3-PRIME
# [16] = Enhanced Gene, Oncogene, Gene No. 8431, Ras-associated protein Rap1 (RBJ)
# [17] = Enhanced Gene, Oncogene, Gene No. 8440, mab-21-like 2 (C elegans) (MAB21L2)
# [18] = Enhanced Gene, Oncogene, Gene No. 14195, B-cell translocation gene 4 (BTG4)
# [19] = Enhanced Gene, Oncogene, Gene No. 18829, v-myc myelocytomatosis viral related oncogene, neuroblastoma derived (avian) (MYCN)
# [20] = Enhanced Gene, Oncogene, Gene No. 21713, zn87b11y5 Stratagene lung carcinoma 937218 cDNA clone IMAGE: 565149 5′
# [21] = Enhanced Gene, Oncogene, Gene No. 22388, zb91f05s1 Soares_parathyroid_tumor NbHPA cDNA clone IMAGE: 320193 3′
# [22] = Enhanced Gene, Oncogene, Gene No. 22675, endogenous retroviral family W, env(C7), member 1 (syncytin) (ERVWE1), mRNA
# [23] = Enhanced Gene, Oncogene, Gene No. 24910, platelet-derived growth factor beta polypeptide (simian sarcoma viral (v-sis) oncogene homolog) (PDGFB), transcript variant 2
# [24] = Enhanced Gene, Oncogene, Gene No. 29317, T-cell leukemia/lymphoma 6 (TCL6), transcript variant TCL6a1
# [25] = Enhanced Gene, Oncogene, Gene No. 32050, disrupted in renal carcinoma 1 (DIRC1)
# [26] = Enhanced Gene, Oncogene, Gene No. 34854, NEUROBLASTOMA COT 25-NORMALIZED cDNA clone CS0DC018YE24 3-PRIME
# [27] = Enhanced Gene, Oncogene, Gene No. 34979, yu38e06r1 Soares ovary tumor NbHOT cDNA clone IMAGE: 236098 5′
# [28] = Enhanced Gene, Oncogene, Gene No. 36631, RAB43, member RAS oncogene family (RAB43), mRNA
# [29] = Enhanced Gene, Oncogene, Gene No. 37781, NEUROBLASTOMA COT 25-NORMALIZED cDNA clone CS0DC011YD03 5-PRIME
# [30] = Enhanced Gene, Oncogene, Gene No. 38566, RAS protein activator like 2, mRNA (cDNA clone IMAGE: 5399841), with apparent retained intron
# [31] = Enhanced Gene, Oncogene, Gene No. 46997, clone N11 NTera2D1 teratocarcinoma mRNA
# [32] = Suppressed Gene, Cancer Suppressing Gene, Gene No. 8280, brain specific protein (CGI-38)
# [33] = Suppressed Gene, Cancer Suppressing Gene, Gene No. 11261, breast cancer metastasis suppressor 1 (BRMS1)
# [34] = Suppressed Gene, Cancer Suppressing Gene, Gene No. 11438, serologically defined breast cancer antigen 84 (SDBCAG84), transcript variant 1
# [35] = Suppressed Gene, Cancer Suppressing Gene, Gene No. 30909, tumor rejection antigen (gp96) 1 (TRA1)
# [36] = Suppressed Gene, Cancer Suppressing Gene, Gene No. 35687, heat shock protein 75 (TRAP1)
# [37] = Suppressed Gene, Cancer Suppressing Gene, Gene No. 36334, heat shock 70 kDa protein 14 (HSPA14)
# [38] = Suppressed Gene, Cancer Suppressing Gene, Gene No. 37600, AHA1, activator of heat shock 90 kDa protein ATPase homolog 1 (yeast) (AHSA1)
# [39] = Suppressed Gene, Cancer Suppressing Gene, Gene No. 50395, Ras suppressor protein 1 (RSU1), transcript variant 1
# [40] = Suppressed Gene, Cancer Suppressing Gene, Gene No. 52111, leukemia cell normalized cDNA library cDNA clone LEU1757_26_C2
# [41] = Suppressed Gene, Immune System Gene, Gene No. 4403, programmed cell death 4 (neoplastic transformation inhibitor) (PDCD4), transcript variant 2
# [42] = Suppressed Gene, Immune System Gene, Gene No. 4899, interferon (alpha, beta and omega) receptor 2 (IFNAR2), transcript variant 1
# [43] = Suppressed Gene, Immune System Gene, Gene No. 8634, perform 1 (pore forming protein) (PRF1)
# [44] = Suppressed Gene, Immune System Gene, Gene No. 8922, interferon induced transmembrane protein 1 (9-27) (IFITM1)
# [45] = Suppressed Gene, Immune System Gene, Gene No. 9938, interleukin 17D (IL17D)
# [46] = Suppressed Gene, Immune System Gene, Gene No. 10204, interferon-related developmental regulator 1 (IFRD1)
# [47] = Suppressed Gene, Immune System Gene, Gene No. 10791, HLA-B associated transcript 5 (BAT5)
# [48] = Suppressed Gene, Immune System Gene, Gene No. 11236, natural killer cell group 7 sequence (NKG7), mRNA
# [49] = Suppressed Gene, Immune System Gene, Gene No. 11635, thymosin, beta 4, Y-linked (TMSB4Y)
substance,measurement,setting,value
the Peptide (QPQFGRRMESK; Human squamous cell carcinoma),Enhancement Ratio,[1],7.233
same,Expression Amount after Treatment with the Peptide,[1],24.93
same,Enhancement Ratio,[2],1.853
same,Expression Amount after Treatment with the Peptide,[2],608.5
same,Enhancement Ratio,[3],4.547
same,Expression Amount after Treatment with the Peptide,[3],122.7
same,Enhancement Ratio,[4],37.72
same,Expression Amount after Treatment with the Peptide,[4],4927
same,Enhancement Ratio,[5],7.555
same,Expression Amount after Treatment with the Peptide,[5],20.69
same,Enhancement Ratio,[6],30.05
same,Expression Amount after Treatment with the Peptide,[6],19.83
same,Enhancement Ratio,"Enhanced Gene, Immune System Gene, Gene No. 30707, immunoglobulin superfamily, member 4C (IGSF4C)",7.379
same,Enhancement Ratio,[7],2.225
same,Expression Amount after Treatment with the Peptide,[7],85.26
same,Enhancement Ratio,[8],4.932
same,Expression Amount after Treatment with the Peptide,[8],11.37
same,Enhancement Ratio,[9],2.53
same,Expression Amount after Treatment with the Peptide,[9],8.623
same,Enhancement Ratio,[10],2.032
same,Expression Amount after Treatment with the Peptide,[10],3307
same,Enhancement Ratio,[11],2.462
same,Expression Amount after Treatment with the Peptide,[11],22.62
same,Enhancement Ratio,[12],6.36
same,Expression Amount after Treatment with the Peptide,[12],393.7
same,Enhancement Ratio,[13],9.349
same,Expression Amount after Treatment with the Peptide,[13],5.453
same,Enhancement Ratio,[14],1.786
same,Expression Amount after Treatment with the Peptide,[14],67.54
same,Enhancement Ratio,[15],11.83
same,Expression Amount after Treatment with the Peptide,[15],350.3
same,Enhancement Ratio,[16],2.435
same,Expression Amount after Treatment with the Peptide,[16],18.61
same,Enhancement Ratio,[17],2.175
same,Expression Amount after Treatment with the Peptide,[17],15.71
same,Enhancement Ratio,[18],2.567
same,Expression Amount after Treatment with the Peptide,[18],7.219
same,Enhancement Ratio,[19],2.225
same,Expression Amount after Treatment with the Peptide,[19],15.32
same,Enhancement Ratio,[20],45.9
same,Expression Amount after Treatment with the Peptide,[20],7.742
same,Enhancement Ratio,[21],9.47
same,Expression Amount after Treatment with the Peptide,[21],571.2
same,Enhancement Ratio,[22],2.498
same,Expression Amount after Treatment with the Peptide,[22],204.4
same,Enhancement Ratio,[23],1.898
same,Expression Amount after Treatment with the Peptide,[23],55.05
same,Enhancement Ratio,[24],3.478
same,Expression Amount after Treatment with the Peptide,[24],10.06
same,Enhancement Ratio,[25],28.44
same,Expression Amount after Treatment with the Peptide,[25],9.806
same,Enhancement Ratio,[26],26.92
same,Expression Amount after Treatment with the Peptide,[26],1.098
same,Enhancement Ratio,[27],9.116
same,Expression Amount after Treatment with the Peptide,[27],24.17
same,Enhancement Ratio,[28],5.871
same,Expression Amount after Treatment with the Peptide,[28],417.5
same,Enhancement Ratio,[29],12.79
same,Expression Amount after Treatment with the Peptide,[29],32.41
same,Enhancement Ratio,[30],1.982
same,Expression Amount after Treatment with the Peptide,[30],14.55
same,Enhancement Ratio,[31],21.14
same,Expression Amount after Treatment with the Peptide,[31],236.2
same,Expression Amount after Treatment with the Peptide,[32],9
same,Suppression Ratio,[32],84.27
same,Expression Amount after Treatment with the Peptide,[33],6.257
same,Suppression Ratio,[33],60.59
same,Expression Amount after Treatment with the Peptide,[34],14.74
same,Suppression Ratio,[34],81.87
same,Expression Amount after Treatment with the Peptide,[35],11.47
same,Suppression Ratio,[35],86.08
same,Expression Amount after Treatment with the Peptide,[36],0.2252
same,Suppression Ratio,[36],461.4
same,Expression Amount after Treatment with the Peptide,[37],2.08
same,Suppression Ratio,[37],164.2
same,Expression Amount after Treatment with the Peptide,[38],8.429
same,Suppression Ratio,[38],116.6
same,Expression Amount after Treatment with the Peptide,[39],8.763
same,Suppression Ratio,[39],53.66
same,Expression Amount after Treatment with the Peptide,[40],13.6
same,Suppression Ratio,[40],43.65
same,Expression Amount after Treatment with the Peptide,[41],21.97
same,Suppression Ratio,[41],40.6
same,Expression Amount after Treatment with the Peptide,[42],4.5
same,Suppression Ratio,[42],119.2
same,Expression Amount after Treatment with the Peptide,[43],10.2
same,Suppression Ratio,[43],92.95
same,Expression Amount after Treatment with the Peptide,[44],110.9
same,Suppression Ratio,[44],98.91
same,Expression Amount after Treatment with the Peptide,[45],0.3
same,Suppression Ratio,[45],39.28
same,Expression Amount after Treatment with the Peptide,[46],9.714
same,Suppression Ratio,[46],71.65
same,Expression Amount after Treatment with the Peptide,[47],3.429
same,Suppression Ratio,[47],150.9
same,Expression Amount after Treatment with the Peptide,[48],65.47
same,Suppression Ratio,[48],72.38
same,Expression Amount after Treatment with the Peptide,[49],2.5
same,Suppression Ratio,[49],42.45
same,Expression Amount after Treatment with the Peptide,"Suppressed Gene, Immune System Gene, Gene No. 11651, implantation-associated protein (DKFZp564K142)",12.84
